{"source": "patent US20240300975A1", "about": "“DIMETHYL-SUBSTITUTED THIAZOLOLACTAM COMPOUND AND USE THEREOF” (D3 Bio (Wuxi) Co., Ltd., priority 2021, published 2024)", "key": {"hERG potassium channel": {"target": "hERG potassium channel (Homo sapiens (Human), UniProt Q12809)", "sequence (Q12809 whole entry)": "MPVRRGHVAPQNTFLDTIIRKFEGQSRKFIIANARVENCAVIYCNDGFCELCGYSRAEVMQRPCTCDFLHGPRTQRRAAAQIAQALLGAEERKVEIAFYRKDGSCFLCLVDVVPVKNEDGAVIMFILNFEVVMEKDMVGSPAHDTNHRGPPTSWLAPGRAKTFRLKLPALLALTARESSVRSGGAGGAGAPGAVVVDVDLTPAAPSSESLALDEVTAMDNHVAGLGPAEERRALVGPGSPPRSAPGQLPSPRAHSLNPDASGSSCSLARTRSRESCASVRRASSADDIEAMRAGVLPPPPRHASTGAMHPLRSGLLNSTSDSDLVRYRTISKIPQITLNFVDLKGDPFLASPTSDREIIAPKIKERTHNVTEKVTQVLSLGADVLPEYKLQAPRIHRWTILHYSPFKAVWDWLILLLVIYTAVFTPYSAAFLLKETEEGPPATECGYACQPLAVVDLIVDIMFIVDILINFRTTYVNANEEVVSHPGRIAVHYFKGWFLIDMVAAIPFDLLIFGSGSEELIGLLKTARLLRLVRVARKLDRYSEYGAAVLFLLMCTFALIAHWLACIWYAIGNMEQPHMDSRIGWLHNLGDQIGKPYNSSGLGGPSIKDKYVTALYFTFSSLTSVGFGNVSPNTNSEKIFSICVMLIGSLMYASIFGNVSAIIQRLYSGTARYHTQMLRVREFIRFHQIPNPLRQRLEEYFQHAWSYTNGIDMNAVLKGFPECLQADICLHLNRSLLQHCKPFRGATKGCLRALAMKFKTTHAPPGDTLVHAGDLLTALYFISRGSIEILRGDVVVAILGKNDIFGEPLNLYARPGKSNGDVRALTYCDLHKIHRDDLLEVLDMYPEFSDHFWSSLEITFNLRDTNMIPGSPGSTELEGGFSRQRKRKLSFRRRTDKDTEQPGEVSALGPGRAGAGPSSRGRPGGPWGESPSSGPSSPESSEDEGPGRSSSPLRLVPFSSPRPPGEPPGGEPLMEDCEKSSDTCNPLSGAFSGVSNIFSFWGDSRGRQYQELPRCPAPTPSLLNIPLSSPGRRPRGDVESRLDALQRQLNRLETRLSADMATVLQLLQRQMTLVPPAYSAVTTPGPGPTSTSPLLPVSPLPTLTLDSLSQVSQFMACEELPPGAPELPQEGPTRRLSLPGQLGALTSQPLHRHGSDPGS", "assay": "hERG assay (automated patch-clamp, CHO-hERG cells)", "assay_type": "cell-based", "details": "Qpatch, highest assayed concentration 40 μM", "experimental": "A fully automated patch-clamp method was used to assay the effect of the compound on hERG potassium channel (human Ether-a-go-go Related Gene potassium channel) current.\nCHO-hERG cells were cultured in a 175 cm^2 culture flask. When cells grew to a density of 60˜80%, the culture medium was removed. Cells were washed once with 7 mL of PBS (Phosphate Buffered Saline), and then 3 mL of Detachin was added for digestion. After the digestion was completed, 7 mL of culture medium was added for neutralization, and then the mixture was centrifuged. The supernatant was aspirated, and then 5 mL of culture medium was added to resuspend the cells and ensure that the cell density was 2˜5×10^6/mL.\nExtracellular solution formulation (mM): 140 NaCl, 5 KCl, 1 CaCl2), 1.25 MgCl2, 10 HEPES and 10 Glucose; the formulation was adjusted to pH of 7.4 with NaOH. […]\nThe single-cell high-impedance sealing and whole-cell pattern formation processes were all automatically performed by a Qpatch instrument. […] This voltage stimulation was applied every 15 seconds, and recorded for 2 minutes. The extracellular solution was then given, and recorded for 5 minutes. […]\nAssay data were analyzed by GraphPad Prism 5.0 software. […]\n• The inhibitory effect of Cisapride with multiple concentrations on the hERG channel was measured as a positive control."}, "human plasma albumin": {"tested_on": "human plasma albumin", "assay": "Plasma protein binding (PPB), human plasma", "assay_type": "in vitro ADME", "details": "ultracentrifugation, 37° C., 4 h", "experimental": "The binding degree of the assay compound to human/mouse/rat/canine/monkey plasma albumin was studied.\n• 1) Matrix preparation: on the day of the assay, plasma was thawed in cold water and centrifuged at 3220 rpm for 5 min to remove all clots. The pH of the resulting plasma was measured and adjusted to 7.4±0.1 using 1% phosphoric acid or 1N sodium hydroxide as needed. • 2) Dilution procedure for the assay compound: the assay compound was dissolved in dimethyl sulfoxide (DMSO) to prepare stock solutions with concentrations of 10 mM and 2 mM, respectively. A 40 μM working solution was prepared by diluting 2 μL of stock solution (2 mM) with 98 μL of DMSO. A 400 μM working solution of the control compound was prepared by diluting 10 μL of stock solution with 240 μL of DMSO. The working solution of the compound (5 μL) was mixed well with a blank matrix (995 μL) at a ratio of 1:200 to prepare a loading matrix.\n• a) An equal volume of 30 μL of loading matrix (n=2) was transferred to a sample collection plate to prepare a time 0 (TO) sample for residue determination. The sample was immediately matched with the corresponding blank buffer to a final volume of 60 μL, and the volume ratio of plasma to buffer in each well was 1:1. […] The mixture was centrifuged at 4000 rpm for 20 min and 100 μL of supernatant from each sample was analyzed by LC-MS/MS."}}}
{"smiles": "Cc1cccc(CN2C(=O)c3nc(-c4nc(Nc5ccnn5C)ncc4C)sc3C2(C)C)n1", "note": "[WX001]", "values": [{"measurement": "IC50", "setting": "hERG potassium channel", "value": "> 40", "unit": "µM"}, {"measurement": "Plasma protein binding rate (unbound %)", "setting": "human plasma albumin", "value": 6.1, "unit": "%"}]}
